Tests used:
M1 mAChR = molecular target: T1, M1 mAChR (Rattus norvegicus, UniProt P08482); test: α-APPs secretion in cell cultures stably transfected with the M1 mAChR; type: cell-based; details: for Emax: read-out: APPs levels, % of maximal effect of carbachol, at 100 μm
T1 construct: expressed in transfected cells; elsewhere rat pheochromocytoma cells
T1 sequence (P08482 1-460): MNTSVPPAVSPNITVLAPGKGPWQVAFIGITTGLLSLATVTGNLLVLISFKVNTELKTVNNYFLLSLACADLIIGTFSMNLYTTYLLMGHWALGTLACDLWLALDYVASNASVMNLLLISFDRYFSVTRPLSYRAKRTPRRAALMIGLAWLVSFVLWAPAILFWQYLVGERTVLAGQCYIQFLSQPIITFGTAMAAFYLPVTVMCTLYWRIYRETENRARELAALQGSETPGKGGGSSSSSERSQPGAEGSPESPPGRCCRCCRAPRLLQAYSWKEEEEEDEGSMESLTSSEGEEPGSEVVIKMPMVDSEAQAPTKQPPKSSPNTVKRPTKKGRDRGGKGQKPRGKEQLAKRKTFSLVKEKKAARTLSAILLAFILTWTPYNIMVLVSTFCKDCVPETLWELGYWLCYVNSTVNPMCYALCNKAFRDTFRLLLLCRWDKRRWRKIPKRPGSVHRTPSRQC
Description: Cells were plated in 6 well culture plates and used at the age of 3–5 days after plating. […] Cells exposed to medium alone are referred as controls.
Cell supernatants were collected into Eppendorff tubes containing a cocktail of protease inhibitors (5 units/ml aprotinin, […], […] and 10^−4M Phenylmethylsulfonylfluoride (PMSF, a protease inhibitor); Sigma, USA). The collected media were concentrated with Centricon tubes (Amicon, Beverly, Mass., USA) and kept frozen for α-APPs secretion determination. Equal amounts of protein (50–100 μg) were loaded and separated on 10% sodium dodecyl sulfate-polyacrylamide gel electrophoresis (SDS-PAGE). Followed by western blotting onto nitrocellulose membrane, blocked by fat-free milk, and probed for 24 hours at 4° C., with anti-Alzheimer's precursor protein, A4 monoclonal antibody 22C11 (0.25 μg/ml; Boehringer Mannheim, Germany). The nitrocellulose membranes were washed and incubated for 2 hours at room temperature with peroxidase-linked goat anti-mouse IgG antibodies (Jackson Immunoresearch, USA), followed by extensive washout and staining with enhanced chemiluminescence detection system (Amersham). Quantitative evaluation of the immunoreactive bands, on the exposed films, was performed by video-imaging densitometry (Gel-aid software; Galai Co., Israel). APPs levels were expressed as x-fold increase over basal levels.

[1] = test system: Rat pheochromocytoma cells transfected with M1 mAChR; test: Neurite outgrowth response; type: cell-based; details: blocked by atropine
Description: Rat pheochromocytoma cells transfected with M1 mAChR cells were grown as described in Gurwitz et al, (NeuroReport 6, 485,1995). For determination of neurite outgrowth, cells plated in six-well plates were used 3–5 days after-plating. Growth factors were added 1 day after plating and muscarinic agonists were added for the last 24 hrs.
Cells were observed under an inverted microscope. The percent of cells with neurite longer than cell diameter were scored in three random fields of several hundred cells from each well. Results were expressed as a percent of cells with neurites. Treatments were performed in triplicate cells. Both NGF (50 ng/ml) and EGF (100 ng/ml) were added 1 day after plating. Muscarinic agonists were added 24 hours before scoring.

[2] = test system: Rat pheochromocytoma cells transfected with M1 mAChR; type: cell-based; details: β-A25-35 (10 & 20 μM)
Description: Confluent rat pheochromocytoma cells transfected with the M1 mAChR cultures were detached with trypsin, washed and plated in 24-well, 6-well, 60-mm or 100-mm plates that were precoated with rat tail collagen (Sigma, Israel). Several experiments were performed in serum-free medium. For 3-(4,5-dimethylthiazol-2-yl)-2,5-diphenyl-tetrazolium bromide (MTT) assay, cells (1.5×10^4) were plated in 96-well collagen-precoated plates, in serum-free medium, with or without various drugs for 24 hours. For differentiation, cells were grown in the presence of 1% FCS and 1% HS, with addition of 50 ng/ml NGF for 7 days, to cause full differentiation. […] After 7 days, cells were washed and the medium was either replaced to serum-free, or cells were detached and replated in serum-free medium. Cells in serum-free medium were treated either with Aβ peptides that were previously “aged” or with H2O2. Tested compounds were added together with the insults for the indicated time, unless otherwise stated.
Cells were plated in 96-well plates in 100 μl medium. After exposure to various treatments, 10 μl of 5 mg/ml MTT [3-(4,5-dimethylthiazol-2-yl)-2,5-diphenyl-tetrazolium bromide; Sigma, Israel] solution in phosphate-buffered saline (PBS) was added to each well. Plates were incubated for 2 hrs at 37° C. followed by hydrocholoric acid-isopropanol addition (100 μl of 0.04N HCl/isopropanol). Plates were read using ELISA reader at a wavelength of 570 nm.
The MTT assay measures primary early changes within the cells, reflecting the integrity of the electron transport chain and provides a readout of cellular redox activity. This test is a specific, early indicator of the mechanism of β-amyloid-mediated cell death and can be used to detect rapid inhibitory response.

tau proteins = test: tau phosphorylation, AT8 immunoblot; type: cell-based; details: 100 μM; to the control level
Excerpt: Following the experimental design of Sadot et al., J. Neurochem. […] By linking an M1 agonist to an antioxidant moiety tau phophorylation may be decreased, providing a new therapeutic strategy in a variety of CNS disease states due to combined damage due to oxidative stress and tau hyperphosphorylation.

trihexyphenidyl rats = test: Passive avoidance in trihexyphenidyl-treated rats; type: in vivo, Wistar rats; details: 24 h
Excerpt: Trihexyphenidyl is a selective M1 muscarinic antagonist that crosses the blood brain barrier and induces memory and learning impairments (Bymaster et al. J Pharmacol Exp Ther 267: 16–24, 1993. Roldan et al Neurosci. Lett. 230: 93–96, 1997; Kimura et al Brain Res. 834: 6–12, 1999).
Naive Wistar rats were used in the experiments below. The passive avoidance (PA) task is comprised of training (acquisition) phase and a retention phase. In the training procedure each rat was individually placed in the small illuminated compartment and after 60 sec. of familiarization/adaptation, the door to the large compartment was opened and the latency to enter was measured (Initial Latency). Immediately following entry into the dark compartment, the door was closed and inescapable foot shock (0.6 mA for 3 sec) was delivered through the grid floor. A cutoff point of 180 sec was used for initial latency. […] After the acquisition trial the rat was returned to its home cage. Retention of the passive avoidance task was measured 24 h later, by again placing the rat in the light compartment and after a 60 sec adaptation interval, the door was opened and the latency to re-enter the dark compartment was measured. A cutoff point of 300 sec was used for retention latency.

ApoE = ApoE synthesis and secretion in primary type 1 astrocytes; type: cell-based, rat; details: up to 96 hrs
Description: Primary cultures of type 1 astrocytes were derived from the cortex of Sprague Dawley rats. The compounds tested were dissolved in the culture media and added to cells for 24, 48, 72 and 96 hrs. Media was then removed and kept frozen until ApoE protein levels were evaluated by immunoblot analysis as described in Poirier et al Neuroscience 55: 81–90 (1993). Alternatively the methods of Cedazo-Minuez et al [Neurosci 105: 651–661, 2001} may be employed.

[3] = test system: rat primary cerebral cortex cell cultures; test: APPs secretion in rat primary cortical cell cultures; type: cell-based; details: 100 μm
[4] = test system: rat primary hippocampal cell cultures; test: APPs secretion in rat primary hippocampal cell cultures; type: cell-based; details: 100 μm
C57BL/10SnJ (B10) mice = test: Morris water maze in small hippocampus mice; type: in vivo; details: for Training, escape latency: 0.5 and 1 mg/kg i.p. (rivastigmine, nicotine 1 mg/kg); for Training, path length: AF150(S) both doses, AF267B the higher dose; for Reversal test, escape latency / Training, swimming speed / Transfer test, spatial bias: mouse, in vivo
Description: C57BL/10SnJ (B10) mice were selected due to their small hippocampi and decreased number of hippocampal pyramidal neurons; the cell loss seemed to be associated with poor spatial learning.
(§1) Each group of mice was randomly divided into 7 treatment groups (n=12-14/group). […] All tested compounds and saline were administered once a day for 4 days before starting the behavioral testing, and then for the duration of the 5-day experiment, 30 minutes before testing.
(§2) Training: Each mouse was trained for four consecutive days, four trials (one block) per day, in which the platform position remained constant and was located in the center of the southeast quadrant of the pool. Within each block of four trials, each mouse started at each of the starting locations, but the sequence of locations was randomly selected. A trial consisted of placing a mouse by hand into the water facing the wall of the pool at one of four starting locations, north, south, east or west, around the pool's perimeter. Escape latency (the time to find the platform), path length (the distance traveled by the mouse) and speed (the swimming rate of the mouse) were recorded on each trial by the monitoring system.
(§3) For each mouse, the path length, escape latency, and swimming speed of the four trials on each of the 4 training days were grouped into blocks (one block for each day). […] Specific comparisons were performed, using the simple main effects contrasts acalysis, which is specifically suited for testing significant interactions.
(§4) Transfer test. During trial No. 17, on the fourth day, the platform was entirely removed from the pool (a probe trial). In this trial, the mouse was placed into the water for a limited period (30 s), and its spatial bias was measured by recording the relative distribution of escape latency and path length over the four quadrants of the pool.
(§5) Reversal test. During trials 18–21, on the fifth day, the platform position was changed to the northwest quadrant, opposite to the training quadrant. Thus, during reversal learning, the platform location was moved relative to the configuration of objects within the room, but the pool occupied the same place within the room throughout the entire experiment. Testing of the rats and measures taken were the same as in training.
(§6) For each mouse, the escape latency, path length and swimming speed of the reversal test (trials No. 18–21) were grouped into one block.

C57BL6J mice = test: Morris water maze in normal hippocampus mice; type: in vivo; details: for Reversal test, escape latency: AF150(S) 0.5 mg/kg; for Training, path length: AF150(S) only the higher dose; for Reversal test, swimming speed: AF150(S)-0.5 mg/kg, AF267B-1 mg/kg, rivastigmine, nicotine; for Training, swimming speed: mouse, in vivo
Description: as §1, §2, §3, §4, §5, §6

Compound: CCC1SC2(CCN(C)CC2)NC1=O (racemic) [AF267, 2-ethyl-8-methyl-1-thia-4,8-diaza-spiro[4.5]decan-3-one]
- α-APPs secretion, comparison in words (M1 mAChR): AF267B is more efficacious and more potent than its racemate

Compound: CCC1SC2(CCN(C)CC2)N(C(=O)CCc2c[nH]c3ccccc23)C1=O (racemic) [AF704, 2-Ethyl-4-(3-1H-indol-3-yl-propionyl)-8-methyl-1-thia-4,8-diaza-spiro[4.5]decan-3-one]
- Emax (M1 mAChR): 50%
- Neurotrophic effect [1]: neurotrophic
- Protection against β-A25-35-induced cytotoxicity [2]: more effective than carbachol and AF267B
- tau phosphorylation (AT8) (tau proteins): induce dephosphorylation of tau proteins
- Retention latency (trihexyphenidyl rats; 0.1 mg/kg, po): 214.70 ± 36.63 s
- Retention latency (trihexyphenidyl rats; 0.5 mg/kg p.o.): 283.50 ± 17.39 s
- Retention latency (trihexyphenidyl rats; 1 mg/kg p.o.): 274.44 ± 26.97 s

Compound: CC1OC2(CS1)CN1CCC2CC1 (centres unmarked) [AF102B, reference compound]
- ApoE production (ApoE): inactive
- Retention latency (trihexyphenidyl rats; 1 mg/kg p.o.): 234.4 ± 35.3 s

Compound: CC[C@@H]1SC2(CCN(C)CC2)N(S(=O)(=O)c2ccc(F)cc2)C1=O [AF700, (S)-2-Ethyl-4-(4-fluoro-benzenesulfonyl)-8-methyl-1-thia-4,8-diaza-spiro[4.5]decan-3-one]
- Emax (M1 mAChR): 50%
- Neurotrophic effect [1]: neurotrophic
- Protection against β-A25-35-induced cytotoxicity [2]: more effective than carbachol and AF267B

Compound: CCC1SC2(CCN(C)CC2)N(CCc2c[nH]c3ccccc23)C1=O (centres unmarked) [AF703, 2-Ethyl-4-[2-(1H-indol-3-yl)-ethyl]-8-methyl-1-thia-4,8-diaza-spiro[4.5]decan-3-one]
- Protection against β-A25-35-induced cytotoxicity [2]: more effective than carbachol and AF267B

Compound: O=C1CCCN1CC#CCN1CCCC1 [Oxotremorine, oxotremorine, reference compound]
- APPs secretion, activity in words [3]: inactive
- APPs secretion, activity in words [4]: inactive

Compound: CN1CCCC1c1cccnc1 (centres unmarked) [nicotine, reference compound]
- Training, escape latency (C57BL/10SnJ (B10) mice): no improving effect
- Training, path length (C57BL/10SnJ (B10) mice): no significant effect
- Reversal test, escape latency (C57BL/10SnJ (B10) mice): no significant effect
- Training, swimming speed (C57BL/10SnJ (B10) mice): Neither rivastigmine nor nicotine had any significant effect
- Transfer test, spatial bias (C57BL/10SnJ (B10) mice): partial spatial bias
- Training, escape latency (C57BL6J mice; 0.5 and 1 mg/kg i.p. (rivastigmine, nicotine 1 mg/kg)): degraded the performance
- Reversal test, escape latency (C57BL6J mice): no significant effect
- Training, path length (C57BL6J mice): no significant effect
- Reversal test, swimming speed (C57BL6J mice): significantly decreased
- Training, swimming speed (C57BL6J mice): significantly decreased the swimming speed

Compound: CCN(C)C(=O)Oc1cccc([C@H](C)N(C)C)c1 [rivastigmine, reference compound]
- α-APPs secretion, comparison in words (M1 mAChR): not effective
- Training, escape latency (C57BL/10SnJ (B10) mice): positively affected
- Training, path length (C57BL/10SnJ (B10) mice): positively affected
- Reversal test, escape latency (C57BL/10SnJ (B10) mice): no significant effect
- Training, swimming speed (C57BL/10SnJ (B10) mice): Neither rivastigmine nor nicotine had any significant effect
- Transfer test, spatial bias (C57BL/10SnJ (B10) mice): complete spatial bias
- Reversal test, escape latency (C57BL6J mice): no significant effect
- Training, path length (C57BL6J mice): neither AF267B nor rivastigmine had any effect
- Reversal test, swimming speed (C57BL6J mice): significantly decreased
- Training, swimming speed (C57BL6J mice): significantly decreased the swimming speed

Compound: (S)-Ethyl-4-(3-1H-indol-3-yl-propionyl)-8-methyl-1-thia-4,8-diaza-spiro[4.5]decan-3-one [AF704B]
- Protection against β-A25-35-induced cytotoxicity [2]: more effective than carbachol and AF267B
- tau phosphorylation (AT8) (tau proteins): induce dephosphorylation of tau proteins

— US7049321B2, “Methods and pharmaceutical compositions for treatment of central and peripheral nervous system disorders and compounds useful therefor” (Israel Institute for Biological Research, priority 2002, dated 2006)
